Reference: patent US10189795B2, “Aryl amine substituted quinoxaline used as anticancer drugs” (priority 2014, dated 2019)

Key:
A549 = assay: cell viability of A549 cells, 1 and 10 uM; format: cell-based; conditions: Homo sapiens
Description: [Worded in the source for another cell line; this cell line is reported under the same test.] (§1) Sorafenib (Nexavar), erlotinib (Tarceva) and Paclitaxel were kindly provided by Bayer Pharmaceuticals (Pittsburgh, Pa., USA) and Roche Pharmaceuticals (Basel, Switzerland) respectively. Okadaic acid (OA) was purchased from Cayman Chemical (Ann Arbor, Mich., USA) and z-VAD-fmk was obtained from Sigma (St. Louis, Mo., USA). For in vitro studies, drugs at various concentrations were dissolved in dimethyl sulfoxide (DMSO), and added to cells in Dulbecco's modified Eagle's medium (DMEM) or Roswell Park Memorial Institute (RPMI) containing 5% fetal bovine serum (FBS).
(§2) The Sk-Hep1, PLC/PRF/5 (PLC) and Hep3B cell lines were obtained from American Type Culture Collection (ATCC; Manassas, Va., USA). The Huh-7 HCC cell line was obtained from the Health Science Research Resources Bank (HSRRB; Osaka, Japan; JCRB0403). Cells were maintained in DMEM supplemented with 10% FBS in a 37° C. humidified incubator in an atmosphere of 5% CO^2 in air.

H520 = assay: cell viability of H520 cells, 1 and 10 uM; format: cell-based; conditions: Homo sapiens, NCI-H520
Description: [Worded in the source for another cell line; this cell line is reported under the same test.] as §1, §2

NCI-1703 = assay: cell viability of NCI-1703 cells, 1 and 10 uM of each erlotinib derivative, and IC50; format: cell-based; conditions: Homo sapiens; for IC50: cell viability
Description: [Worded in the source for another cell line; this cell line is reported under the same test.] as §1, §2

H358 = assay: cell viability of H358 cells, 1 and 10 uM; format: cell-based; conditions: Homo sapiens, NCI-H358
Description: [Worded in the source for another cell line; this cell line is reported under the same test.] as §1, §2

NCI-H226 = assay: cell viability of NCI-H226 cells, 1 and 10 uM; format: cell-based; conditions: Homo sapiens
Description: [Worded in the source for another cell line; this cell line is reported under the same test.] as §1, §2

SET-PP2Ac binding = target: T1, SET-PP2Ac binding (Homo sapiens, UniProt Q01105); assay: disruption of SET-PP2Ac binding (surface plasmon resonance, co-IP)
T1 construct: His; purchased Genway (SET-His); Abnova (PP2Ac-GST) GWB-ATG319; H00005515
T1 sequence (Q01105 1-277 isoform Q01105-2): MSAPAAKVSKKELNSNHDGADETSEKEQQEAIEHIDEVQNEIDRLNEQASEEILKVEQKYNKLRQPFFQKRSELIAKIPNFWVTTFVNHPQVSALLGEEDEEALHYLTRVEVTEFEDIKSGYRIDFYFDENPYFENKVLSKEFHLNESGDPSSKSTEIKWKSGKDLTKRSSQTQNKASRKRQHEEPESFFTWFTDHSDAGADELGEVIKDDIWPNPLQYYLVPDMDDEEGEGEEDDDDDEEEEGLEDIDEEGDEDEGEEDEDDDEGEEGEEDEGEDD
Description: Binding affinities of full-length SET and truncated SET to PP2Ac and the effect of the erlotinib derivatives of the present invention on disrupting SET and PP2Ac were analyzed. PP2Ac-GST recombinant protein was bound in the CMS chip pre-coated with GST-capture antibodies. Sensorgrams were generated by injecting several concentrations of the erlotinib derivatives of the present invention mixed with fixed-concentration of SET recombinant protein, or the mixture of different concentration of truncated SET proteins in a fixed-dose EMQA. PP2Ac-GST recombinant protein used for this experiment was purchased from Abnova (H00005515) and SET-His recombinant protein was obtained from Genway (GWB-ATG319).
EMQA reactivates PP2A by disrupting the binding of SET-PP2Ac. To validate the role of SET, the present invention generated Hep3B cells with ectopic expression of myc-tagged SET by transient transfection. […] With a fixed amount of PP2Ac coated on the CM chip, the present invention tested the effects of a fixed-dose of EMQA on interfering different proportions of full-length and truncated forms of SET proteins in SPR system. […] To validate the findings of this ex vivo system, the present invention generated cells with ectopic overexpression of these two truncated forms of Flag-tagged SET proteins by transient transfections.

PP2A = PP2A phosphatase activity (malachite green-phosphate assay in cell lysate); format: cell-based
Description: The protein phosphatase activity in each cell lysate was determined by measuring the generation of free phosphate from threonine phosphopeptide using the malachite green-phosphate complex assay as described by the manufacturer (Upstate Biotechnology, Lake Placid, N.Y., USA). In brief, HCC cell lysates were first prepared in a low-detergent lysis buffer. […] After incubation for 10 min at 30° C., the malachite dye was added and free phosphate was measured by optical density at 650 nm. In order to avoid variation resulting from differences in the amount of immunoprecipitation protein between samples, the phosphatase activities were normalized to the amounts of PP2A immunoprecipitated, which were detected and quantified by immunoblot analysis for each treatment group.

H2170 = assay: cell viability of H2170 cells, 1 and 10 uM; format: cell-based; conditions: Homo sapiens, NCI-H2170
Description: [Worded in the source for another cell line; this cell line is reported under the same test.] as §1, §2

SW900 = assay: cell viability of SW900 cells, 1 and 10 uM; format: cell-based; conditions: Homo sapiens
Description: [Worded in the source for another cell line; this cell line is reported under the same test.] as §1, §2

BA (%), Table 5 = conditions: in vivo
PLC5 xenograft tumor = PLC5 xenograft tumor growth in nude mice; format: in vivo; conditions: 10 mg/kg, oral gavage daily, 4 weeks, vs control arm
Description: Male NCr athymic nude mice (5-7 weeks of age) were obtained from the National Laboratory Animal Center (Taipei, Taiwan). All experimental procedures using these mice were performed in accordance with protocols approved by the Institutional Laboratory Animal Care and Use Committee of National Taiwan University. Each mouse was inoculated subcutaneously in the dorsal flank with 1×10^6 PLC5 or A549 cells suspended in serum-free medium containing 50% Matrigel (BD Biosciences, Bedford, Mass., USA). When tumors reached 100-150 mm^3, mice were treated with sorafenib, the erlotinib derivatives of the present invention, or vehicle (control) at 10 mg/kg/day daily by oral gavage for 4 weeks.
The present invention used a PLC5 xenograft mouse model to assess the effects of TD-52 in vivo. The present choose sorafenib as one of the comparative treatment arms. Tumor-bearing mice were administered sorafenib (10 mg/kg), TD-52 (10 mg/kg) or DMSO (vehicle, as control). […] The present invention further examined the xenografted tumors taken from mice receiving TD-52 and vehicle to confirm the molecular events in the tumor tissue. […] When PP2A activity was enhanced by TD-52, Akt was dephosphorylated, promoting HCC cell apoptosis.

BA (%) (BA (%), Table 5)	SMILES	viability at 1 µM (A549)	viability at 10 µM (A549)	viability at 1 µM (H520)	viability at 10 µM (H520)	viability at 1 µM (NCI-1703)	viability at 10 µM (NCI-1703)	viability at 1 µM (H358)	viability at 10 µM (H358)	viability at 1 µM (NCI-H226)	viability at 10 µM (NCI-H226)	minimal concentration to disrupt SET-PP2Ac binding (SET-PP2Ac binding)	minimal concentration for PP2A activation (PP2A)	viability at 1 µM (H2170)	viability at 10 µM (H2170)	viability at 1 µM (SW900)	viability at 10 µM (SW900)	IC50 (NCI-1703)	tumor size (PLC5 xenograft tumor)
–	FC(F)(F)Oc1ccc(Nc2nc3ccccc3nc2Nc2ccc(OC(F)(F)F)cc2)cc1 [TD65, N^2,N^3-bis(4-(trifluoromethoxy)phenyl)quinoxaline-2,3-diamine]	66.4 ± 6.9%	27.7 ± 2%	18.5 ± 1.23%	0.47 ± 0.06%	53.2 ± 2.3%	26.3 ± 1%	27.1 ± 1.2%	18.3 ± 3%	46.2 ± 2.5%	14.1 ± 1.3%	<100 nM	50 to 100 nM	77.9 ± 3.48%	0.26 ± 0.1%	0.73 ± 1.32%	–	–	–
–	FS(F)(F)(F)(F)c1ccc(Nc2nc3ccccc3nc2Nc2ccc(S(F)(F)(F)(F)F)cc2)cc1 [TD68, N^2,N^3-bis(4-(Pentafluorothio)phenyl)quinoxaline-2,3-diamine]	57.3 ± 19.1%	32.9 ± 4%	10.1 ± 0.85%	0.47 ± 0.11%	48.6 ± 2%	33.3 ± 7.1%	22.4 ± 1.8%	16.7 ± 0.8%	40.2 ± 0.3%	14.8 ± 0.3%	50 nM	<50 nM	69.39 ± 0.67%	0.17 ± 0.16%	3.38 ± 4.64%	0.57 ± 0.22%	–	–
–	Clc1cc(Cl)cc(Nc2nc3ccccc3nc2Cl)c1 [TD78, 3-chloro-N-(3,5-dichlorophenyl)quinoxalin-2-amine]	77.6 ± 5.8%	94.7 ± 11.3%	108.5 ± 0.14%	108 ± 2.23%	70.6 ± 8.2%	73.2 ± 14.1%	98.7 ± 4.6%	90.8 ± 7.4%	118 ± 2.2%	111 ± 12.9%	100 to 200 nM	>200 nM	111 ± 1.69%	93.09 ± 0.66%	102 ± 6.69%	84.1 ± 1.12%	–	–
–	FC(F)(F)Oc1ccc(Nc2nc3ccccc3nc2Cl)cc1 [TD80, 3-chloro-N-(4-(trifluoromethoxy)phenyl)quinoxalin-2-amine]	110 ± 6%	83.4 ± 16.4%	104 ± 1.3%	92.2 ± 4.42%	106 ± 5.2%	52.3 ± 2.4%	119 ± 3.7%	89.4 ± 11.9%	103 ± 10.7%	87.8 ± 9.3%	>200 nM	>200 nM	91.6 ± 5.42%	87.56 ± 0.78%	99.8 ± 11.8%	88 ± 13.4%	–	–
–	FS(F)(F)(F)(F)c1ccc(Nc2nc3ccccc3nc2Cl)cc1 [TD81, 3-chloro-N-(4-(Pentafluorothio)phenyl)quinoxalin-2-amine]	95.6 ± 15.9%	69.4 ± 3.4%	103.4 ± 0.14%	72.4 ± 11.3%	82.7 ± 5%	85.8 ± 0.1%	116 ± 5.9%	75.5 ± 3.9%	100 ± 4.1%	92 ± 3.8%	>200 nM	>200 nM	100 ± 6.2%	82.7 ± 2.44%	86.9 ± 7.36%	60.2 ± 11.2%	–	–
–	C#Cc1cccc(Nc2nc3cc([N+](=O)[O-])ccc3nc2Nc2ccc(OC)cc2)c1 [TD605, N^3-(3-ethynylphenyl)-N^2-(4-methoxyphenyl)-6-nitroquinoxaline-2,3-diamine]	83.7 ± 7%	113 ± 18.3%	89.1 ± 6.09%	0.78 ± 0.39%	20.8 ± 0.4%	13.8 ± 0.2%	101 ± 13.6%	113 ± 12%	53.1 ± 1.9%	5.5 ± 0.2%	100 to 200 nM	100 to 200 nM	108 ± 3.88%	5.53 ± 0.81%	87.1 ± 27.2%	2.21 ± 1.34%	500 nM	–
–	Nc1ccc2nc(Nc3ccc(C(F)(F)F)cc3)c(Nc3ccc(C(F)(F)F)cc3)nc2c1 [TD607, N^2,N^3-bis(4-(trifluoromethyl)phenyl)quinoxaline-2,3,6-triamine]	100 ± 5.9%	9.5 ± 0.6%	63.4 ± 53.7%	–	49.7 ± 2.7%	13.4 ± 1.6%	116 ± 15.5%	12.1 ± 0.3%	106 ± 2.6%	36.7 ± 2.2%	>200 nM	>200 nM	104 ± 14.2%	1.34 ± 0.93%	85.9 ± 10.4%	0.61 ± 5%	1300 nM	–
–	COc1cccc(Nc2nc3ccc([N+](=O)[O-])cc3nc2Nc2cccc(OC)c2)c1 [TD608, N^2,N^3-bis(3-methoxyphenyl)-6-nitroquinoxaline-2,3-diamine]	71.5 ± 35%	10.3 ± 3.5%	97 ± 19.8%	1.77 ± 1.7%	52.8 ± 4.5%	12.7 ± 0.9%	110 ± 44%	31.7 ± 33.3%	104 ± 2.5%	40.6 ± 2.4%	>200 nM	>200 nM	113 ± 8.63%	4.71 ± 0.24%	114 ± 2.6%	39.8 ± 51.2%	–	–
62%	C#Cc1cccc(Nc2nc3cc([N+](=O)[O-])ccc3nc2Nc2ccc(O)cc2)c1 [TD619, 4-(2-(3-ethynylphenylamino)-7-nitroquinoxalin-3-ylamino)phenol]	105 ± 19.5%	20.9 ± 1.7%	–	–	119 ± 11.2%	33.6 ± 5.4%	87.5 ± 3.6%	22.1 ± 0.6%	110 ± 18.2%	19.5 ± 0.7%	–	–	–	–	–	–	–	–
–	CNC(=O)c1cc(Oc2ccc(NC(=O)Nc3ccc(Cl)c(C(F)(F)F)c3)cc2)ccn1 [sorafenib, reference compound]	–	–	–	–	–	–	–	–	–	–	–	–	–	–	–	–	–	smaller than those of the control arm
